Where two headings read alike, the source gives them in different places.
How the values were obtained:
[1] = Stability constants of La^3+ complexes by pH potentiometry; type: physicochemical; conditions: for pLa: −log[La^3+]free for [L] = 10 μM and [La^3+] = 1 μM at pH 7.4 and 25 °C; for log K LaL ^La: 1:2 L:La^3+ complex; for log K LaL ^La / log K La2L ^OH / log K La2LOH ^OH / log K LaL / pH at which dissociation of the La^3+ complex occurs (speciation diagrams) / log K LaL ^OH: I = 0.15 M NaCl, 25 °C; for pH at which dissociation of the La^3+ complex occurs (speciation diagrams): cLa3+ = cLig = 10^–3 M; for log K LaL ^OH: hydroxo-complex; for amount of La^3+ not complexed at the beginning of the titration: pH 1.7
Description: The stability constants of the La^3+ complexes were determined using pH potentiometry (I = 0.15 NaCl). A significant amount of the metal ion is not complexed by the TPADAC^4– ligand at the beginning of the titration at pH 1.7 (∼20%), which allows for stability constant determination using potentiometry. In the case of TPAEN^4– the amount of free La^3+ was small (∼4%), but the stability constants could be determined by fitting the titration data using both 1:1 and 1:2 (TPAEN^4–:La^3+) stoichiometries (Figure S1, Supporting Information). The TPADAC^4– ligand also forms complexes with 1:1 and 1:2 stoichiometries (Figure S2, Supporting Information).
The thermodynamic stability of the complexes at physiologically relevant pH was assessed by calculating pLa values, defined as −log[La^3+]free for [L] = 10 μM and [La^3+] = 1 μM at pH 7.4 and 25 °C following the recommendation of Raymond. This is a result of the high stability constants (log K LaL) that characterize the formation of these complexes, as well as the relatively low basicity of these ligands. Indeed, cyclohexyl derivatives TPADAC^4– and CHXOCTAPA^4– display considerably higher basicity than the ethyl analogues, as indicated by the Σ log K i ^H (i = 1–5) values shown in Table . Similarly, DTPA and DO3A derivatives are characterized by rather high basicities, which results in relatively low pLa values.
(§1) The pH-potentiometric titrations were carried out with a Methrohm 785 DMP titrator using a Metrohm-6.0233.100 combined electrode. The titrated solutions (5.000 mL) were thermostated at 25 °C and stirred and kept under inert gas atmosphere (N2) to avoid the effect of CO2. The pH-calibration of the electrode was performed using KH-phthalate (pH = 4.005) and borax (pH = 9.177) buffers. The concentrations of the ligand stock solutions were determined by pH-potentiometric titration. The protonation constants of the TPAEN^4– (in the pH range of 2.19–12.00 a total of 213 data pairs by titrating a 2.72 mM a ligand solution) and TPADAC^4– (in the pH range of 1.88–11.85 a total of 208 data pairs by titrating a 2.32 mM ligand solution), the stability and protonation constants of the complexes formed with La^3+ and the formation constants of their dinuclear complexes were determined by pH-potentiometric titration. The metal-to-ligand concentration ratios were 1:1 and 2:1. For the 1:1 ratio a total of 240 data pairs were recorded for a H4TPAEN concentration of 2.29 mM in the pH range of 1.77–11.86, while a total of 222 data pairs were collected in the pH range 1.72–11.85 for a 2.72 mM solution of H4TPADAC. For the 2:1 ratio we collected 259 data pairs for a 2.31 mM solution of H4TPAEN in the pH range of 1.73–11.82, and 259 data pairs for a 2.71 mM concentration of H4TPADAC in the pH range of 1.70–11.85. The calculation of [H^+] from the measured pH values was performed with the use of the method proposed by Irving et al. by titrating a 0.01 M HCl solution (I = 0.15 M NaCl) with a standardized NaOH solution. The differences between the measured and calculated pH values were used to obtain the [H^+] concentrations from the pH-data obtained in the titrations. The ionic product of water was determined from the same experiment in the pH range 11.25–11.85. The protonation and stability constants were calculated from the titration data with the PSEQUAD program. The quality of the fits was assessed with the fitting parameter (FP) calculated by PSEQUAD, which is defined as 2 FP=∑i=1n(Vi,calc−Vi,meas)^2/n−k

[2] = cited from earlier work
[3] = literature value, cited from earlier work
[4] = Ligand protonation constants by pH-potentiometric titration; type: physicochemical; conditions: sum of literature protonation constants of related ligands
[5] = as above; type: physicochemical; conditions: I = 0.15 M NaCl, 25 °C; for Σ log K i ^H (i = 1–5): sum of the constants measured here
Description: Ligand protonation constants were determined in 0.15 M NaCl using potentiometric titrations (Figures S1–S2, Supporting Information). The results are compared with those reported previously for OCTAPA^4– and CHXOCTAPA^4– in Table , while the speciation diagrams are shown in Figure S3 (Supporting Information). The first two protonation constants of these ligands, characterized by log K 1 ^H and log K 2 ^H, correspond to the protonation of amine groups, while the remaining protonation constants are ascribed to the carboxylate groups of picolinate and acetate moieties. ,
as §1

[6] = Dissociation kinetics: transmetalation of La^3+ complexes with Cu^2+ as scavenger (UV-vis); type: physicochemical; conditions: for k 3 ^Cu: Cu^2+-assisted pathway; for k 3 ^Cu / k 6 ^Cu / k 2 / K Cu / k 1: 25 °C, 0.15 M NaCl; for k obs for [Cu^2+] = 1 nM / k obs for [Cu^2+] = 1 μM: calculated at pH 7.4; for k 6 ^Cu: dinuclear hydroxo-complex pathway; for k 2: diprotonated pathway; for K Cu: formation of ternary LaLCu complex; for k 1: proton-assisted dissociation of La^3+ complex
Description: The inertness of metal complexes for radiopharmaceutical applications is important to ensure that the radioisotope is not released in vivo off-target. Furthermore, the detailed study of the dissociation mechanism of the complexes provides useful information for ligand design. Thus, we performed a detailed investigation of the dissociation kinetics of the [La(TPAEN)]^− and [La(TPADAC)]^− complexes using Cu^2+ as a scavenger. The reactions were studied spectrophotometrically in the approximate proton concentration range 1.1 × 10^–5–1.6 × 10^–2 M, which corresponds to a pH range of about 1.8–5.0. A large excess of Cu^2+ was used to ensure pseudo-first order conditions.
The latter may proceed through the formation of mono- or diprotonated intermediates, with associated rate constants k 1 and k 2, respectively. […] Thus, we analyzed the kinetic data using the following expression: 1 kobs=k0+k1[H^+]+k2[H^+]^2+k3[Cu^2+]+k6[Cu^2+]Kw/[H^+]/1+KCu[Cu^2+] Here, k 1, k 2, k 3 ^Cu and k 6 ^Cu are the rate constants defined above, k 0 is the rate constant characterizing the spontaneous dissociation mechanism, K w is the ionic product of water (fixed at pK w = 13.72) and K Cu is the equilibrium constant for the formation of the ternary complex (K Cu= [LaLCu]/[Cu^2+][LaL]).
The rates of the metal exchange reactions of the [La(TPAEN)]^− and [La(TPADAC)]^− complexes with Cu(II) were studied by using UV–vis spectrophotometry following the formation of corresponding Cu(II) complexes. The metal exchange reactions of [La(TPAEN)]^− and [La(TPADAC)]^− were examined by conventional spectrophotometric methods tracking the changes in absorption at 305 nm within the pH range of 1.84 to 4.94 (for [La(TPAEN)]^−). The concentration of the complexes was 0.252 mM, while the Cu(II) ion was applied in high excess (12 to 42 times) to ensure pseudo-first-order conditions. The temperature was maintained at 25 °C, and the ionic strength of the solutions was kept constant at 0.15 M NaCl. Dimethylpiperazine (DMP, 50 mM) buffer was used to maintain the pH constant (log K 2 ^H = 4.18) in the pH range of 3.40 to 4.89 (for [La(TPADAC)]^−). At lower pH, the data were supplemented by following the reactions in the range pH of 2.57 to 3.23 using chloroacetic acid (log K 2 ^H = 2.87) at the same concentration. The pseudo-first-order rate constants (k obs) were calculated by fitting the absorbance vs time data to eq : 3 At=(A0−Ae)e^−kobst+Ae where A t , A 0 and A e are the absorbances recorded at time t, at the start of the reaction and upon reaching equilibrium, respectively. The fittings were performed with the computer program Micromath Scientist, version 2.0 (Salt Lake City, UT) by using a standard least-squares procedure.

## O=C(O)CN1CCN(CC(=O)O)CCN(Cc2cccc(C(=O)O)n2)CCN(CC(=O)O)CC1 [DO3Apic^4–, 2,2′,2″-(10-((6-carboxypyridin-2-yl)methyl)-1,4,7,10-tetraazacyclododecane-1,4,7-triyl)triacetic acid]
[1]; from literature constants
  pLa: 16.6
[2]; 0.1 M KCl, ref footnote f
  log K LaL: 21.17
  log K LaL ^H: 2.55

## O=C(O)CN(Cc1cccc(C(=O)O)n1)[C@@H]1CCCC[C@@H]1N(CC(=O)O)Cc1cccc(C(=O)O)n1 [CHXOCTAPA^4–, 6,6′-((((1R,2S)-cyclohexane-1,2-diyl)bis((carboxymethyl)azanediyl))bis(methylene))dipicolinic acid]
[1]; from literature constants
  pLa: 16.6
[3]; ref footnote c
  log K 1 ^H: 9.52
  log K 2 ^H: 5.51
  log K 3 ^H: 3.99
  log K 4 ^H: 3.43
  log K 5 ^H: 1.59
  log K 6 ^H: 0.61
[3]; ref footnote d
  log K 1 ^H: 9.23
  log K 2 ^H: 5.40
  log K 3 ^H: 3.94
  log K 4 ^H: 2.24
  log K 5 ^H: 1.82
  log K 6 ^H: 1.91
[4]
  Σ log K i ^H (i = 1–5): 24.04
[2]; 0.15 M NaCl, ref footnote b
  log K LaL: 17.82
  log K LaL ^H: 2.00
  log K LaL ^OH: 12.75

## O=C(O)c1cccc(CN2CCOCCOCCN(Cc3cccc(C(=O)O)n3)CCOCCOCC2)n1 [MACROPA^2–, N,N’-bis[(6-carboxy-2-pyridil)methyl]-4,13-diaza-18-crown-6]
[1]; from literature constants
  pLa: 15.6
[2]; 0.1 M KCl, ref footnote d
  log K LaL: 14.99
  log K LaL ^H: 2.28 ^d
[2]; 0.1 M NaCl, ref footnote e
  log K LaL: 13.9

## O=C(O)CN(CC(=O)O)[C@@H]1CCCC[C@H]1N(CC(=O)O)CC(=O)O (relative stereo) [CDTA^4–, 2,2′,2″,2‴-((trans-cyclohexane-1,2-diyl)bis(azanetriyl))tetraacetic acid]
[3]; ref footnote f
  log K 1 ^H: 9.36
  log K 2 ^H: 5.95
  log K 3 ^H: 3.62
  log K 4 ^H: 2.57
  log K 5 ^H: 1.49
[4]
  Σ log K i ^H (i = 1–5): 22.99

## O=C(O)CN(CCN(CC(=O)O)CC(=O)O)CC(=O)O [EDTA^4–, ethylenediamine-N,N,N′,N′-tetraacetic acid]
[3]; ref footnote f
  log K 1 ^H: 9.17
  log K 2 ^H: 5.99
  log K 3 ^H: 2.73
  log K 4 ^H: 2.01
  log K 5 ^H: 1.38
[4]
  Σ log K i ^H (i = 1–5): 21.27

## O=C(O)c1cccc(CN(Cc2cccc(C(=O)O)n2)[C@@H]2CCCC[C@H]2N(Cc2cccc(C(=O)O)n2)Cc2cccc(C(=O)O)n2)n1 [TPADAC^4–]
[5]
  log K 1 ^H: 10.79(1)
  log K 2 ^H: 4.95(1)
  log K 3 ^H: 4.06(1)
  log K 4 ^H: 3.46(1)
  log K 5 ^H: 2.94(1)
  log K 6 ^H: 0.67(6)
  Σ log K i ^H (i = 1–5): 26.20
[1]
  log K LaL ^La: 2.85(1)
  log K La2L ^OH: 6.99(4)
  log K La2LOH ^OH: 9.40(4)
  log K LaL: 19.55(1)
  pH at which dissociation of the La^3+ complex occurs (speciation diagrams): < 3.0
  log K LaL ^OH: 12.06(1)
  amount of La^3+ not complexed at the beginning of the titration: ~20%
[1]; from constants measured here
  pLa: 17.1
[6]
  k 3 ^Cu: (7.8 ± 2.2)×10^–3 M^–1 s^–1
  k obs for [Cu^2+] = 1 nM: 1.123 × 10^–8 s^–1
  k obs for [Cu^2+] = 1 μM: 7.381 × 10^–6 s^–1
  k 6 ^Cu: (1.5 ± 0.3)×10^7 M^–2 s^–1
  k 2: 232.3 ± 36.8 M^–2 s^–1
  K Cu: 74.3 ± 30.2 M^–1
  k 1: 0.097 ± 0.036 M^–1 s^–1

## O=C(O)c1cccc(CN(CCN(Cc2cccc(C(=O)O)n2)Cc2cccc(C(=O)O)n2)Cc2cccc(C(=O)O)n2)n1 [TPAEN^4–, N,N,N′N′-tetrakis[(6-carboxypyridin-2-yl)methyl]-ethylenediamine]
[5]
  log K 1 ^H: 7.87(1)
  log K 2 ^H: 5.14(1)
  log K 3 ^H: 3.89(1)
  log K 4 ^H: 3.28(1)
  log K 5 ^H: 2.55(1)
  log K 6 ^H: 0.89(8)
  Σ log K i ^H (i = 1–5): 22.73
[1]
  log K LaL ^La: 2.31(13)
  log K La2L ^OH: 6.80(10)
  log K La2LOH ^OH: 9.57(10)
  log K LaL: 19.16(8)
  pH at which dissociation of the La^3+ complex occurs (speciation diagrams): < 2.5
  log K LaL ^OH: 12.62(9)
  amount of La^3+ not complexed at the beginning of the titration: ~4%
[1]; from constants measured here
  pLa: 19.5
[6]
  k 3 ^Cu: 0.74 ± 0.05 M^–1 s^–1
  k obs for [Cu^2+] = 1 nM: 4.34 × 10^–7 s^–1
  k obs for [Cu^2+] = 1 μM: 3.45 × 10^–4 s^–1
  k 6 ^Cu: (7.2 ± 0.5)×10^8 M^–2 s^–1
  k 2: 110.93 ± 10.42 M^–2 s^–1
  K Cu: 42.0 ± 4.5 M^–1
  k 1: 2.24 ± 0.13 M^–1 s^–1

Reference: paper PMC12406198, “Decadentate Acyclic Chelators for Lanthanum Radiopharmaceuticals” (Journal of Medicinal Chemistry, 2025)
